The values below come from ChEMBL document CHEMBL1126162, “A steric and electrostatic comparison of three models for the agonist/antagonist binding site on the adenosine A1 receptor” (J Med Chem, 1992).

Values joined by “and” are separate entries in the source; they are usually repeats but may differ in a detail not shown here. Equal entries are not always repeated.

The target in the experiment is T1, Adenosine receptor A1 (Rattus norvegicus, UniProt P25099).
T1 sequence (P25099 whole entry): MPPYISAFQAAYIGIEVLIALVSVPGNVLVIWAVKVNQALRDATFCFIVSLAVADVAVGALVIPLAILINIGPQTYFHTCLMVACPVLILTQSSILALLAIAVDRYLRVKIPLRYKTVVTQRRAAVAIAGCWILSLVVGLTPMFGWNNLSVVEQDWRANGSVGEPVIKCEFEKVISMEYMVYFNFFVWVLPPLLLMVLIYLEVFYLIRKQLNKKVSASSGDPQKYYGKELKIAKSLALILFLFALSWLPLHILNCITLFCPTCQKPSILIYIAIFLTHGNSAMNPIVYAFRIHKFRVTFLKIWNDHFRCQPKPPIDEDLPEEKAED
As to the kind of experiment: Evaluated for binding affinity against Adenosine A1 receptor.
`Cn1c(=O)c2nc(-c3cccc(F)c3)[nH]c2n(C)c1=O` gave an inhibition constant Ki of 2.4 nM.
Still for that read-out and setting: the figure for `COc1ccccc1-c1nc2c([nH]1)c(=O)n(C)c(=O)n2C` is 191 nM; for `CCCn1c(=O)c2[nH]c(-c3ccccc3)nc2n(CCC)c1=O` it is 11 nM.
The same measure, in the same setting: to `CCCn1c(=O)c2[nH]c(CC3CCCCC3)nc2n(CCC)c1=O` belongs 38.9 nM.
`OC[C@H]1OC(n2cnc3c(Nc4ccc(Cl)cc4)ncnc32)[C@H](O)[C@@H]1O` (stereo partly specified) gave a half-inhibitory concentration (IC50) of 2.19 nM.
As for `OC[C@H]1OC(n2cnc3c(Nc4ccc(F)cc4)ncnc32)[C@H](O)[C@@H]1O` (stereo partly specified), the 50% inhibitory concentration (IC50) was 2 nM.
On the same count and under the same terms, the figure for `COc1ccc(Nc2ncnc3c2ncn3[C@@H]2O[C@H](CO)[C@@H](O)[C@H]2O)cc1` is 8.91 nM and 4.57 nM.
`CCCc1ccccc1Nc1ncnc2c1ncn2C1OC(CO)[C@@H](O)[C@H]1O` (single isomer, unassigned) showed a concentration for half-maximal inhibition (IC50) of 52.5 nM.
The same measure, in the same setting: the figure for `OC[C@H]1OC(n2cnc3c(NCC4CCCCC4)ncnc32)[C@H](O)[C@@H]1O` (stereo partly specified) is 39.8 nM; for `CCCc1ccccc1Nc1ncnc2c1ncn2C1O[C@H](CO)[C@@H](O)[C@H]1O` (stereo partly specified) it is 1.2 nM.
Still for that read-out and setting: the figure for `COc1cccc(Nc2ncnc3c2ncn3C2O[C@H](CO)[C@@H](O)[C@H]2O)c1` (stereo partly specified) is 46.8 nM; for `OC[C@H]1O[C@@H](n2cnc3c(NC4CC4)ncnc32)[C@H](O)[C@@H]1O` it is 2.09 nM.
`Cc1ccc(-c2nc3c([nH]2)c(=O)n(C)c(=O)n3C)cc1` showed a Ki of 0.513 nM.
The same measure, in the same setting: the figure for `Cn1c(=O)c2[nH]c(-c3ccc(F)cc3)nc2n(C)c1=O` is 1.82 nM.
In turn, `OC[C@H]1O[C@@H](n2cnc3c(Nc4ccccc4)ncnc32)[C@H](O)[C@@H]1O` [N6-PHENYLADENOSINE] had a 50% inhibitory concentration (IC50) of 3.31 nM.
Same read-out and setting: the figure for `OC[C@H]1OC(n2cnc3c(Nc4cccc(F)c4)ncnc32)[C@H](O)[C@@H]1O` (stereo partly specified) is 1 nM; for `Cc1ccc(Nc2ncnc3c2ncn3C2O[C@H](CO)[C@@H](O)[C@H]2O)cc1` (stereo partly specified) it is 4.9 nM; for `OC[C@H]1OC(n2cnc3c(Nc4ccccc4F)ncnc32)[C@H](O)[C@@H]1O` (stereo partly specified) it is 3.98 nM.
On the same count and under the same terms, to `Cc1ccccc1Nc1ncnc2c1ncn2C1O[C@H](CO)[C@@H](O)[C@H]1O` (stereo partly specified) belongs 8.91 nM.
The molecule `CCCn1c(=O)c2nc(-c3ccc(OC)cc3)[nH]c2n(CCC)c1=O` gave a Ki of 4.57 nM.
On the same count and under the same terms, to `CCCn1c(=O)c2nc(Cc3ccccc3)[nH]c2n(CCC)c1=O` belongs 891 nM.
`COc1ccccc1Nc1ncnc2c1ncn2C1O[C@H](CO)[C@@H](O)[C@H]1O` (stereo partly specified) gave an IC50 of 85.1 nM.
`Cn1c(=O)c2[nH]c(-c3ccccc3F)nc2n(C)c1=O` gave a Ki of 6.76 nM.
Still for that read-out and setting: to `Cc1cccc(-c2nc3c([nH]2)c(=O)n(C)c(=O)n3C)c1` belongs 5.37 nM.
`Cc1cccc(Nc2ncnc3c2ncn3C2O[C@H](CO)[C@@H](O)[C@H]2O)c1` (stereo partly specified) gave an IC50 of 26.9 nM.
In the case of `Cn1c(=O)c2[nH]c(-c3ccc(Cl)cc3)nc2n(C)c1=O`, the Ki is 0.646 nM.
